Measurements as given in patent publication US12077503B2, “Substituted cyclic amides and their use as herbicides” (FMC CORPORATION, priority 2015, dated 2024).
Read-outs that look alike come from different tables or passages of the source.

Experiments:
Assay type in all cases: in vivo
[1] = test system: pigweed (Amaranthus retroflexus); assay: Test A preemergence; conditions: Amaranthus retroflexus, pre-emergence, 240 h; for pest or weed control at 125 g/ha: 125 g ai/ha; for pest or weed control at 500 g/ha: 500 g ai/ha
[2] = test system: pigweed (Amaranthus retroflexus); assay: Test A postemergence; conditions: Amaranthus retroflexus, post-emergence, 240 h, 125 g ai/ha
Procedure, shortened: (§1)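 In a loam soil and sand blend, planted seeds got a preemergence directed soil spray, and young plants at the one- to two-leaf stage, 2–10 cm high, got a postemergence application; ~10 d greenhouse hold; injury rated visually, 0 = none, 100 = complete control.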

[3] = test system: ragweed (common ragweed, Ambrosia elatior); assay: Test A postemergence; conditions: Ambrosia artemisiifolia, post-emergence, 240 h, 125 g ai/ha
Procedure, shortened: as §1

[4] = test system: barnyardgrass (Echinochloa crus-galli); assay: Test A postemergence; conditions: Echinochloa crus-galli, post-emergence, 240 h, 125 g ai/ha, postemergence, visual injury rating after approximately 10 d; read-out: Barnyardgrass plant response rating (0 to 100 scale, 0 no effect, 100 complete control)
Procedure, shortened: as §1

[5] = test system: Galium (catchweed bedstraw, Galium aparine); assay: Test A postemergence; conditions: Galium, post-emergence, 240 h, 125 g ai/ha
Procedure, shortened: as §1

[6] = test system: blackgrass (Alopecurus myosuroides); assay: Test A postemergence; conditions: Alopecurus myosuroides, post-emergence, 240 h, 125 g ai/ha
Procedure, shortened: as §1

corn (Zea mays) = assay: Test A postemergence; conditions: Zea mays, post-emergence, 240 h, 125 g ai/ha; for plant injury at 125 g/ha: postemergence, visual injury rating after approximately 10 d, read-out: Corn plant response rating (0 to 100 scale, 0 no effect, 100 complete control); for Corn plant response rating (crop injury, 0 = no effect, 100 = complete kill) at 125 g/ha: Postemergence, visual injury after approximately 10 d, 0 to 100 scale where 0 is no effect and 100 is complete control
Procedure, shortened: as §1

Kochia (Kochia scoparia) = assay: Test A postemergence; conditions: Bassia scoparia, post-emergence, 240 h, 125 g ai/ha
Procedure, shortened: as §1

[7] = test system: wheat (Triticum aestivum); assay: Test A postemergence; conditions: Triticum aestivum, post-emergence, 240 h, 125 g ai/ha
Procedure, shortened: as §1

[8] = test system: giant foxtail (Setaria faberii); assay: Test A postemergence; conditions: Setaria faberi, post-emergence, 240 h, 125 g ai/ha
Procedure, shortened: as §1

[9] = test system: ryegrass, Italian (Italian ryegrass, Lolium multiflorum); assay: Test A postemergence; conditions: Lolium multiflorum, post-emergence, 240 h, 125 g ai/ha
Procedure, shortened: as §1

[10] = test system: barnyardgrass (Echinochloa crus-galli); assay: Test B flooded paddy test; conditions: Echinochloa crus-galli, Flood, 250 g ai/ha; scale of 0 to 100 where 0 is no effect and 100 is complete control; read-out: Barnyardgrass plant response rating
Procedure, shortened: (§2)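 Flooding to 3 cm over soil accompanied treatment, which consisted of adding compound to the standing water around 2-leaf plants; depth was then maintained. Visual assessment versus controls followed at 13 to 15 d (scale 0–100, 0 meaning no effect).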

rice (Oryra sativa) = assay: Test B flooded paddy test; conditions: Oryza sativa, Flood, 250 g ai/ha; scale of 0 to 100 where 0 is no effect and 100 is complete control; read-out: Rice plant response rating
Procedure, shortened: as §2

[11] = test system: ducksalad (Heteranthera limosa); assay: Test B flooded paddy test; conditions: Heteranthera limosa, Flood, 250 g ai/ha; scale of 0 to 100 where 0 is no effect and 100 is complete control; read-out: Ducksalad plant response rating
Procedure, shortened: as §2

[12] = test system: sedge, umbrella (small-flower umbrella sedge, Cyperus difformis); assay: Test B flooded paddy test; conditions: Cyperus difformis, Flood, 250 g ai/ha; scale of 0 to 100 where 0 is no effect and 100 is complete control; read-out: Sedge, Umbrella plant response rating
Procedure, shortened: as §2

[13] = preemergence, 0 to 100 scale where 0 is no effect and 100 is complete control, read-out: Pigweed plant response rating
[14] = Preemergence, visual injury vs untreated controls after approximately 10 d, read-out: Pigweed plant response rating (0 to 100 scale where 0 is no effect and 100 is complete control)
[15] = postemergence, visual injury rating after approximately 10 d, read-out: Pigweed plant response rating (0 to 100 scale, 0 no effect, 100 complete control)
[16] = postemergence, visual injury rating after approximately 10 d, read-out: Ragweed plant response rating (0 to 100 scale, 0 no effect, 100 complete control)
[17] = postemergence, visual injury rating after approximately 10 d, read-out: Galium plant response rating (0 to 100 scale, 0 no effect, 100 complete control)
[18] = postemergence, visual injury rating after approximately 10 d, read-out: Kochia plant response rating (0 to 100 scale, 0 no effect, 100 complete control)
[19] = postemergence, visual injury rating after approximately 10 d, read-out: Wheat plant response rating (0 to 100 scale, 0 no effect, 100 complete control)
[20] = postemergence, visual injury rating after approximately 10 d, read-out: Foxtail, Giant plant response rating (0 to 100 scale, 0 no effect, 100 complete control)
[21] = postemergence, visual injury rating after approximately 10 d, read-out: Ryegrass, Italian plant response rating (0 to 100 scale, 0 no effect, 100 complete control)
[22] = Preemergence, visual injury rating after approximately 10 d, read-out: Pigweed plant response rating (0 to 100 scale, 0 is no effect, 100 is complete control)
[23] = preemergence, visual injury rating about 10 d after treatment, 0 to 100 scale (0 no effect, 100 complete control), read-out: Pigweed plant response rating
[24] = Postemergence, visual injury after approximately 10 d, 0 to 100 scale where 0 is no effect and 100 is complete control, read-out: Plant response rating, Pigweed
[25] = Postemergence, visual injury after approximately 10 d, 0 to 100 scale where 0 is no effect and 100 is complete control, read-out: Plant response rating, Ragweed
[26] = Postemergence, visual injury after approximately 10 d, 0 to 100 scale where 0 is no effect and 100 is complete control, read-out: Plant response rating, Galium
[27] = Postemergence, visual injury after approximately 10 d, 0 to 100 scale where 0 is no effect and 100 is complete control, read-out: Plant response rating, Blackgrass
[28] = Postemergence, visual injury after approximately 10 d, 0 to 100 scale where 0 is no effect and 100 is complete control, read-out: Plant response rating, Kochia
[29] = Postemergence, visual injury after approximately 10 d, 0 to 100 scale where 0 is no effect and 100 is complete control, read-out: Plant response rating, Wheat
[30] = Postemergence, visual injury after approximately 10 d, 0 to 100 scale where 0 is no effect and 100 is complete control, read-out: Plant response rating, Foxtail, Giant
[31] = Postemergence, visual injury after approximately 10 d, 0 to 100 scale where 0 is no effect and 100 is complete control, read-out: Plant response rating, Ryegrass, Italian

Compound	pest or weed control at 125 g/ha [1, 13] [%]	pest or weed control at 500 g/ha [1, 14] [%]	pest or weed control at 125 g/ha [2, 15] [%]	pest or weed control at 125 g/ha [3, 16] [%]	pest or weed control at 125 g/ha [4] [%]	pest or weed control at 125 g/ha [5, 17] [%]	plant injury at 125 g/ha (corn (Zea mays)) [%]	pest or weed control at 125 g/ha (Kochia (Kochia scoparia); [18]) [%]	plant injury at 125 g/ha [7, 19] [%]	pest or weed control at 125 g/ha [8, 20] [%]	pest or weed control at 125 g/ha [9, 21] [%]	pest or weed control at 250 g/ha [10] [%]	pest or weed control at 250 g/ha (rice (Oryra sativa)) [%]	pest or weed control at 250 g/ha [11] [%]	pest or weed control at 250 g/ha [12] [%]	pest or weed control at 125 g/ha [1, 22] [%]	pest or weed control at 500 g/ha [1, 23] [%]	pest or weed control at 125 g/ha [2, 24] [%]	pest or weed control at 125 g/ha [3, 25] [%]	pest or weed control at 125 g/ha [5, 26] [%]	also measured
CN1C[C@H](c2cccc(F)c2)[C@@H](C(=O)Nc2ccccc2S(C)(=O)=O)C1=O [Compound 824]	0	40	0	30	90	40	0	0	0	90	30	65	0	95	0	–	–	–	–	–	pest or weed control at 125 g/ha ([6]; postemergence, visual injury rating after approximately 10 d, read-out: Blackgrass plant response rating (0 to 100 scale, 0 no effect, 100 complete control)): 20%
O=C1NC[C@H](c2cc(F)c(C(F)(F)F)c(F)c2)[C@H]1C(=O)Nc1cccc(F)c1F [Compound 838]	80	90	80	40	90	50	70	70	30	90	30	40	0	100	0	–	–	–	–	–	–
O=C1NC[C@H](c2cc(F)c(C(F)(F)F)c(F)c2)[C@H]1C(=O)Nc1ccccc1F [Compound 837]	20	80	30	10	90	50	60	20	0	90	50	0	0	70	0	–	–	–	–	–	–
CN1C[C@H](c2cc(F)cc(Cl)c2)[C@@H](C(=O)Nc2ccccc2S(C)(=O)=O)C1=O [Compound 979]	–	–	–	–	–	–	–	–	–	–	–	60	0	100	0	40	90	40	20	40	pest or weed control at 125 g/ha [6, 27]: 60%; Corn plant response rating (crop injury, 0 = no effect, 100 = complete kill) at 125 g/ha (corn (Zea mays)): 30%; pest or weed control at 125 g/ha (Kochia (Kochia scoparia); [28]): 30%; plant injury at 125 g/ha [7, 29]: 50%; pest or weed control at 125 g/ha [8, 30]: 90%; pest or weed control at 125 g/ha [9, 31]: 20%
CSc1ccccc1NC(=O)[C@H]1C(=O)NC[C@@H]1c1cc(F)cc(Cl)c1 [Compound 977]	–	–	–	–	–	–	–	–	–	–	–	15	15	100	0	40	70	30	20	40	pest or weed control at 125 g/ha [6, 27]: 0%; Corn plant response rating (crop injury, 0 = no effect, 100 = complete kill) at 125 g/ha (corn (Zea mays)): 0%; pest or weed control at 125 g/ha (Kochia (Kochia scoparia); [28]): 70%; plant injury at 125 g/ha [7, 29]: 0%; pest or weed control at 125 g/ha [8, 30]: 90%; pest or weed control at 125 g/ha [9, 31]: 0%
